Results on one molecule are retold here after ChEMBL document CHEMBL4190187, “Discovery of pyrazolopyrimidine derivatives as novel inhibitors of ataxia telangiectasia and rad3 related protein (ATR)” (Bioorg Med Chem Lett, 2017).

The target in test [1] is Protein-tyrosine kinase 6 (Homo sapiens) (UniProt Q13882). Put plainly: Inhibition of recombinant full-length human BRK at 1 uM using poly(Glu,Tyr) 4:1 as substrate after 40 mins in presence of [gamma-33P]ATP by scintillation counting method.
Test [2] deals with Wee1-like protein kinase (Homo sapiens) (UniProt P30291). Put plainly: Inhibition of recombinant human Wee1 (214 to end residues) at 1 uM using LSNLYHQGKFLQTFCGSPLYRRR as substrate after 40 mins in presence of [gamma-33P]ATP by scintillation counting method.
Chain of Wee1-like protein kinase (Homo sapiens) (P30291 whole entry, looked up): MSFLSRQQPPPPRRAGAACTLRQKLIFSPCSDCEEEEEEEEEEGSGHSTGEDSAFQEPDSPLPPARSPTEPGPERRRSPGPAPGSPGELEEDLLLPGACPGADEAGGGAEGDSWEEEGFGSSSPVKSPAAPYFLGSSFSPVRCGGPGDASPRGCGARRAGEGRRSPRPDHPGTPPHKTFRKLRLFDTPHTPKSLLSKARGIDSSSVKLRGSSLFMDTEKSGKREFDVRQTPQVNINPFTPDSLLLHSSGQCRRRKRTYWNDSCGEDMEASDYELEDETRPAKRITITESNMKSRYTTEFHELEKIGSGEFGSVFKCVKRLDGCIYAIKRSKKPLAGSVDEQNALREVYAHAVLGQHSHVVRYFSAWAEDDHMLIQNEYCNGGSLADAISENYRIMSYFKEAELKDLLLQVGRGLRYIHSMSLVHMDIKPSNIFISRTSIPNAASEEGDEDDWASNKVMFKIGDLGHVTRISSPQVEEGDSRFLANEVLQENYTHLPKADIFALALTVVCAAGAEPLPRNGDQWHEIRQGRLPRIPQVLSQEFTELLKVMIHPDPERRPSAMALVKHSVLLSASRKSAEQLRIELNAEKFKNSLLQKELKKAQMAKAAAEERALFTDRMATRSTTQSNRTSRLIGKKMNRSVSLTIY
Test [3] deals with Cytoplasmic tyrosine-protein kinase BMX (Homo sapiens) (UniProt P51813). Kind of test: Inhibition of recombinant full-length human BMX at 1 uM using poly(Glu,Tyr) 4:1 as substrate after 40 mins in presence of [gamma-33P]ATP by scintillation counting method.
Test [4] concerns the target Dual specificity mitogen-activated protein kinase kinase 2 (Homo sapiens) (UniProt P36507). Put plainly: Inhibition of recombinant full-length human MEK2 at 1 uM using MBP as substrate after 40 mins in presence of [gamma-33P]ATP by scintillation counting method.
The target in test [5] is Myosin-IIIb (Homo sapiens) (UniProt Q8WXR4). Put plainly: Inhibition of recombinant human MYO3B (1 to 326 residues) at 1 uM using RLGRDKYKTLRQIRQ as substrate after 40 mins in presence of [gamma-33P]ATP by scintillation counting method.
Chain of Myosin-IIIb (Homo sapiens) (Q8WXR4 whole entry, the tested form may be a part): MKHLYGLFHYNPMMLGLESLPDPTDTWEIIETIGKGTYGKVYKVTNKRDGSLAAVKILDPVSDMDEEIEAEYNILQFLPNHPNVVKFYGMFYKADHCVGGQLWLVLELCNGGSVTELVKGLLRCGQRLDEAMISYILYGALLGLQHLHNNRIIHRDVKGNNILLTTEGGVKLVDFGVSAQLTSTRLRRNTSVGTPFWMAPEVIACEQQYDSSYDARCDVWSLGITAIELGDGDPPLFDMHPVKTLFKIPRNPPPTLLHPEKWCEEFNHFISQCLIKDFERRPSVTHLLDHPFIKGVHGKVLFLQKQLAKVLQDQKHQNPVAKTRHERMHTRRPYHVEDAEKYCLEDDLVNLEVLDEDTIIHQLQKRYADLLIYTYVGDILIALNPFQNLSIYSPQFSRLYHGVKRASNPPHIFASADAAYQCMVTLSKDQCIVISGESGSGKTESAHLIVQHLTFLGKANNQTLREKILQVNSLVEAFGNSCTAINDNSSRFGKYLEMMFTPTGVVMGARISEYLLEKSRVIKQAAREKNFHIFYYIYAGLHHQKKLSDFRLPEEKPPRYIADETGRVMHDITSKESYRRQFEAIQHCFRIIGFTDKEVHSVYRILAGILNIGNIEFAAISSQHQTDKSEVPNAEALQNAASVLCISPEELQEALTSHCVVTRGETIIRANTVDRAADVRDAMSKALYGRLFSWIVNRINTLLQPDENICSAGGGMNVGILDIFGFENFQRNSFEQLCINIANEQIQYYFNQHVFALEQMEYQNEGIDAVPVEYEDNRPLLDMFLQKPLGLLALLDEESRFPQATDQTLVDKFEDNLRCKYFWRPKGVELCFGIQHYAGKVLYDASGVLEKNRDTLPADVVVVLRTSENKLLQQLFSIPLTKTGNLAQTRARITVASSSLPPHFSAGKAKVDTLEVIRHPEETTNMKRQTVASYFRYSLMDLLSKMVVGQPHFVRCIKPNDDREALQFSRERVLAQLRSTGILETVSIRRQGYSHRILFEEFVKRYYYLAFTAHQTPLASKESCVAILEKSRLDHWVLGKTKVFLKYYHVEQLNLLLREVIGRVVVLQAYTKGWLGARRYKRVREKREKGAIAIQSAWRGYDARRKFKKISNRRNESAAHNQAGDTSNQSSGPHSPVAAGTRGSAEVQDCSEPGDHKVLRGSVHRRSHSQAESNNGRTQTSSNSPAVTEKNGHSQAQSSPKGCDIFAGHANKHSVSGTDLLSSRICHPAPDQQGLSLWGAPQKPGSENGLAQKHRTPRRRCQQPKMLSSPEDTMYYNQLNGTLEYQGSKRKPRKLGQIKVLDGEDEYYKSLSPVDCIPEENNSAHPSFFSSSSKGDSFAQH
For test [6], the target named is Vascular endothelial growth factor receptor 3 (Homo sapiens) (UniProt P35916). Kind of test: Inhibition of recombinant human Flt4 (800 to end residues) at 1 uM using GGEEEEYFELVKKKK as substrate after 40 mins in presence of [gamma-33P]ATP by scintillation counting method.
Test [7] concerns the target Calcium/calmodulin-dependent protein kinase kinase 2 (Homo sapiens) (UniProt Q96RR4). Put plainly: Inhibition of recombinant full-length human CAMKK2 at 1 uM using […] after 40 mins in presence of [gamma-33P]ATP by scintillation counting method.
The target in test [8] is Mitogen-activated protein kinase kinase kinase kinase 5 (Homo sapiens) (UniProt Q9Y4K4). Kind of test: Inhibition of recombinant full-length human MAP4K5 at 1 uM using myelin basic protein as substrate after 40 mins in presence of [gamma-33P]ATP by scintillation counting method.
Chain of Mitogen-activated protein kinase kinase kinase kinase 5 (Homo sapiens) (Q9Y4K4 whole entry, looked up): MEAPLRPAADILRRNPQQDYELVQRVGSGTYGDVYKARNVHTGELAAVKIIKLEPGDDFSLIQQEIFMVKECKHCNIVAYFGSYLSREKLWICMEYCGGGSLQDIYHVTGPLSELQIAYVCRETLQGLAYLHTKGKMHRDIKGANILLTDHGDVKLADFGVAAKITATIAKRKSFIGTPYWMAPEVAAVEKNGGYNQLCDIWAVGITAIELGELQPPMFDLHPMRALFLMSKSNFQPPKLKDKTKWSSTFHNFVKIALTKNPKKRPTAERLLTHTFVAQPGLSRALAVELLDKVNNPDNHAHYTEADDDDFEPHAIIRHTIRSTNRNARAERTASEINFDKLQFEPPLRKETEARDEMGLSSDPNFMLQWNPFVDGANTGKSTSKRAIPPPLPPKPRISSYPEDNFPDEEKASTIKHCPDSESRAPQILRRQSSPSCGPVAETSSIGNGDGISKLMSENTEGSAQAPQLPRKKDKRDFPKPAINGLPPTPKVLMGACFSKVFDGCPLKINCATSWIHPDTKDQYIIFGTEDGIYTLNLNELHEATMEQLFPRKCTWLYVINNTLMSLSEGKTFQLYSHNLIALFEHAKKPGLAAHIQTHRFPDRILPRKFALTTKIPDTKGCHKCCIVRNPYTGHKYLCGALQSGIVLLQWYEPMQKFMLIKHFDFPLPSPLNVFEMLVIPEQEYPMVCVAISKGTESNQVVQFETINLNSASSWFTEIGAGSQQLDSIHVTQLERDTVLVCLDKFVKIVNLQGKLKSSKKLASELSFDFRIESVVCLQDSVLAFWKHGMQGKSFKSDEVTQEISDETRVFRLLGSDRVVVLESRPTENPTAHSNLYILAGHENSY
Test [9] concerns the target Mitogen-activated protein kinase 10 (Homo sapiens) (UniProt P53779). Put plainly: Inhibition of recombinant full-length human JNK3 at 1 uM using peptide as substrate after 40 mins in presence of [gamma-33P]ATP by scintillation counting method.
The target in test [10] is Calcium/calmodulin-dependent protein kinase type II subunit delta (Homo sapiens) (UniProt Q13557). Put plainly: Inhibition of recombinant full-length human CAMK2delta at 1 uM using […] after 40 mins in presence of [gamma-33P]ATP by scintillation counting method.
Test [11] deals with Serine/threonine-protein kinase MRCK beta (Homo sapiens) (UniProt Q9Y5S2). Put plainly: Inhibition of recombinant human MRCKbeta (1 to 473 residues) at 1 uM using KKRNRTLTV as substrate after 40 mins in presence of [gamma-33P]ATP by scintillation counting method.
Test [12] has as its target FKBP12A/mTOR (Homo sapiens) (UniProt P62942+P42345). Put plainly: Inhibition of recombinant full-length human mTOR/FKBP12 at 1 uM after 40 mins in presence of [gamma-33P]ATP by scintillation counting method. The class given is protein-complex assay.
Test [13] addresses Tyrosine-protein kinase Fgr (Homo sapiens) (UniProt P09769). Kind of test: Inhibition of recombinant human FGR (2 to end residues) at 1 uM using poly(Glu,Tyr) 4:1 as substrate after 40 mins in presence of [gamma-33P]ATP by scintillation counting method.
Test [14] addresses Serine/threonine-protein kinase SIK3 (Homo sapiens) (UniProt Q9Y2K2). Put plainly: Inhibition of recombinant human SIK3 (1 to 307 residues) at 1 uM using KKKVSRSGLYRSPSMPENLNRPR as substrate after 40 mins in presence of [gamma-33P]ATP by scintillation counting method.
In test [15] the target is Dual specificity protein kinase CLK1 (Homo sapiens) (UniProt P49759). Kind of test: Inhibition of recombinant human CLK1 (130 to end residues) at 1 uM using ERMRPRKRQGSVRRRV as substrate after 40 mins in presence of [gamma-33P]ATP by scintillation counting method.
The target in test [16] is Tyrosine-protein kinase Blk (Homo sapiens) (UniProt P51451). Kind of test: Inhibition of recombinant full-length human Blk at 1 uM using poly(Glu,Tyr) 4:1 as substrate after 40 mins in presence of [gamma-33P]ATP by scintillation counting method.
Chain of Tyrosine-protein kinase Blk (Homo sapiens) (P51451 2-505 limits assumed): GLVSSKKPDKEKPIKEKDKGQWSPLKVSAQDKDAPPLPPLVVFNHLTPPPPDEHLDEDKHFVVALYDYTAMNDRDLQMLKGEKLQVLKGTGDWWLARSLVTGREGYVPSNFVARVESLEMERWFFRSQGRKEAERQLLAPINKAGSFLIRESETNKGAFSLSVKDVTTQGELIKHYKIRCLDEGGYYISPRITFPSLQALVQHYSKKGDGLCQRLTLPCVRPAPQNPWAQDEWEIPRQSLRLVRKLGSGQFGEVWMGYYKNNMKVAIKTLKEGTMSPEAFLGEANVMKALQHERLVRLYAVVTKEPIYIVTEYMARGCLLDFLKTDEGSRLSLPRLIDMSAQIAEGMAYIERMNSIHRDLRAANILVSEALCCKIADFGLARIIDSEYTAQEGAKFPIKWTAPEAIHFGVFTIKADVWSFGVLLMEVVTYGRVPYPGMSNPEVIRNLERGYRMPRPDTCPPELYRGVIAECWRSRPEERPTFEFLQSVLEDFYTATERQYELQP
Test [17] concerns the target Serine/threonine-protein kinase ULK2 (Homo sapiens) (UniProt Q8IYT8). Put plainly: Inhibition of recombinant human ULK2 (1 to 306 residues) at 1 uM using casein as substrate after 40 mins in presence of [gamma-33P]ATP by scintillation counting method.
The target in test [18] is MAP kinase-activated protein kinase 2 (Homo sapiens) (UniProt P49137). Put plainly: Inhibition of recombinant human MAPKAPK2 (46 to end residues) at 1 uM using KKLNRTLSVA as substrate after 40 mins in presence of [gamma-33P]ATP by scintillation counting method.
Chain of MAP kinase-activated protein kinase 2 (Homo sapiens) (P49137 whole entry, looked up, the tested form may be a part): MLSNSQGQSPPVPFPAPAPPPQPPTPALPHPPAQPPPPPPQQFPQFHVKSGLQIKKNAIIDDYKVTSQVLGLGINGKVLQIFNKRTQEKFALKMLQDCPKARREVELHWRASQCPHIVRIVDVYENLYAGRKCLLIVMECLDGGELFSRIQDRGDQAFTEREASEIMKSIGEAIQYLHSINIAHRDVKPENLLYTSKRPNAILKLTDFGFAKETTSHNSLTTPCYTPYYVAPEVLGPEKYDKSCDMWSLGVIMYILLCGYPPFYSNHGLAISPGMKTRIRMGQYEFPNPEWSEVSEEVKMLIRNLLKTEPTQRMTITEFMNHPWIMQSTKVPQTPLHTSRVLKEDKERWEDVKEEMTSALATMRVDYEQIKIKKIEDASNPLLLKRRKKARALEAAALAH
The target in test [19] is Serine/threonine-protein kinase TAO1 (Homo sapiens) (UniProt Q7L7X3). Kind of test: Inhibition of recombinant human TAO1 (1 to 327 residues) at 1 uM using myelin basic protein as substrate after 40 mins in presence of [gamma-33P]ATP by scintillation counting method.
Test [20] has as its target Serine/threonine-protein kinase ICK (Homo sapiens) (UniProt Q9UPZ9). Kind of test: Inhibition of recombinant human ICK (1 to 312 residues) at 1 uM using RRRFRPASPLRGPPK as substrate after 120 mins in presence of [gamma-33P]ATP by scintillation counting method.
Test [21] concerns the target Serine/threonine-protein kinase PLK2 (Homo sapiens) (UniProt Q9NYY3). Put plainly: Inhibition of recombinant human Snk (65 to 409 residues) at 1 uM using casein as substrate after 40 mins in presence of [gamma-33P]ATP by scintillation counting method.
Test [22] concerns the target Ephrin type-B receptor 3 (Homo sapiens) (UniProt P54753). Put plainly: Inhibition of recombinant human EPHB3 (599 to 920 residues) at 1 uM using poly(Glu,Tyr) 4:1 as substrate after 40 mins in presence of [gamma-33P]ATP by scintillation counting method.
Test [23] has as its target Serine/threonine-protein kinase PLK3 (Homo sapiens) (UniProt Q9H4B4). Kind of test: Inhibition of recombinant human Plk3 (19 to 301 residues) at 1 uM using casein as substrate after 40 mins in presence of [gamma-33P]ATP by scintillation counting method.
For test [24], the target named is Tyrosine-protein kinase ABL1 (Homo sapiens) (UniProt P00519). Kind of test: Inhibition of recombinant full-length human Abl at 1 uM using EAIYAAPFAKKK as substrate after 40 mins in presence of [gamma-33P]ATP by scintillation counting method.
Chain of Tyrosine-protein kinase ABL1 (Homo sapiens) (P00519 whole entry): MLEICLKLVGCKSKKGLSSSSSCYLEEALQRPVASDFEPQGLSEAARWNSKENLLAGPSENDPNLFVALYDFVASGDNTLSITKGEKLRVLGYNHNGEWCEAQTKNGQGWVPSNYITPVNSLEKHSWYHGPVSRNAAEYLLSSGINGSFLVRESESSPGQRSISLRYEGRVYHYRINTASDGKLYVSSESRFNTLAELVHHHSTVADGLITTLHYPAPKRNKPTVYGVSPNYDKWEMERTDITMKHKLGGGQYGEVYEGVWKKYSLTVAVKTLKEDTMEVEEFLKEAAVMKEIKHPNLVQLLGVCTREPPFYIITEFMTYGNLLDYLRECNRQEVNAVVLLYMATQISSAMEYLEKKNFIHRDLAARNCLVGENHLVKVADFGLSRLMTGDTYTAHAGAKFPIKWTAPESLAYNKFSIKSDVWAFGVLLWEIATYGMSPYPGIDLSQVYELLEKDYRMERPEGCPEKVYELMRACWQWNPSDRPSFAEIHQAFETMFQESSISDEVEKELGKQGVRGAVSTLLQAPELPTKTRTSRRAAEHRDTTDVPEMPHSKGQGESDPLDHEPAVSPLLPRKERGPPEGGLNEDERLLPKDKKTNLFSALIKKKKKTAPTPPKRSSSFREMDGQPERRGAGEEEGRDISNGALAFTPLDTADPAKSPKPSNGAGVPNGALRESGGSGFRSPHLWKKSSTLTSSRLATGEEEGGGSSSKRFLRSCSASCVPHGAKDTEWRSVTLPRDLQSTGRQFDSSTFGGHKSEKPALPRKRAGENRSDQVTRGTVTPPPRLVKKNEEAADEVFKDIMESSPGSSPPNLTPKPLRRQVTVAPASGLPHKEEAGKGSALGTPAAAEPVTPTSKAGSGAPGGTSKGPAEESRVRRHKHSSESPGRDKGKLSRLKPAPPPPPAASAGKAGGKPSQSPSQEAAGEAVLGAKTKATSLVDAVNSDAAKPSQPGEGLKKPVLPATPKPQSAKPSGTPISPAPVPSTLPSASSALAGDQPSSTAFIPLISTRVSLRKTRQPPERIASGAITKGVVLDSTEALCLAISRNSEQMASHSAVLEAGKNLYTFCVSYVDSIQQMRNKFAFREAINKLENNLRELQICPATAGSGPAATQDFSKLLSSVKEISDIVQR

Chain of FKBP12A/mTOR (Homo sapiens) (P62942 2-108 limits assumed, other chains not shown): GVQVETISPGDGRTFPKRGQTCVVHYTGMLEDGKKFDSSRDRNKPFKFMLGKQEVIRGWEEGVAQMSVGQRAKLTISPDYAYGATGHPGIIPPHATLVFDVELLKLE

As to `CS(=O)(=O)c1ccc(-n2nc(-c3cnc4[nH]ccc4c3)c3c(N)ncnc32)cc1`, the inhibition (as a rule, the relative decrease from the control value, in per cent) in test [1] was 102%; in test [2] it was 1%; in [3], 47%; in test [4], -7%; in [5] it was 5%; in test [6], 91%. For the same molecule, the inhibition in test [7] was -4%; in test [8], 1%; in test [9], 8%; in test [10], 3%; in test [11] it was -4%; in test [12], 78%. The inhibition in test [13] was 69%; in test [14], 20%; in [15] it was 10%; in [16], 40%; in test [17] it was 5%; in test [18], -4%. Further, the inhibition was 7% in test [19]; -8% in test [20]; -6% in test [21]; -2% in test [22]; 3% in test [23]; 66% in [24].
